{"source": "patent US20200345805A1", "about": "“COMPOSITIONS AND METHODS USEABLE FOR TREATMENT OF DRY EYE” (priority 2019, published 2020)", "tested_on": "Integrin αMβ2", "experiment": "Expression of integrin αMβ2 in ischemic retinopathy of prematurity (ROP) mice after Risuteganib treatment", "type": "in vivo", "details": "FIG. 1", "description": "FIG. 1 is a graphic showing expression of integrin αMβ2 in ischemic retinopathy of prematurity (ROP) mice after Risuteganib treatment. Risuteganib is a small peptide that acts as an integrin inhibitor. Risuteganib targets multiple integrin subunits, including Integrin αMβ2 which is sometimes referred to as the “compliment 3 receptor” and is actively involved in inflammatory pathways and, in particular, the compliment 3 pathway. […] By causing such inhibition of Integrin αMβ2 Risuteganib may interfere with leucocyte adhesion and trans-endothelial migration, thereby resulting in decreased inflammation and improvement in the symptoms of Dry Eye.", "note": "Non-standard residues stand in square brackets, D forms with d. Residues, ends and D or L forms follow the SMILES beside them. Cya = N[C@@H](CS(=O)(=O)O)C(=O)O", "data": [{"smiles": "C[C@@H](O)[C@H](NC(=O)[C@H](CS(=O)(=O)O)NC(=O)CNC(=O)[C@H](CCCNC(=N)N)NC(=O)CN)C(=O)N1CCC[C@H]1C(=O)O", "note": "[Risuteganib, Glycyl-L-arginylglycyl-3-sulfo-L-alanyl-L-threonyl-L-proline] (H-GRG[Cya]TP-OH)", "values": [{"measurement": "expression of Integrin αMβ2", "value": "decreases expression"}]}]}
